Positions of bridges follow the written chain, without caps; N, C: chain ends. Non-standard residues stand in square brackets, D forms with d. Residues, ends and D or L forms follow the SMILES beside them. Phe(4-COOH) = N[C@@H](Cc1ccc(C(=O)O)cc1)C(=O)O; Trp(7-aza) = N[C@@H](Cc1c[nH]c2ncccc12)C(=O)O; Gly(N(CH2)3COOH) = O=C(O)CCCNCC(=O)O; NMeF = CN[C@@H](Cc1ccccc1)C(=O)O; 4Pal = N[C@@H](Cc1ccncc1)C(=O)O; NMeA = CN[C@@H](C)C(=O)O; Sar = CNCC(=O)O
Assays:
GDF-11 = target: T1, GDF-11 (Homo sapiens, UniProt O95390); experiment: HepG2 reporter gene assay, Evaluation Procedure (2): 2-concentrations assay, GDF-11 inhibition; format: cell-based; settings: GDF-11 10 ng/mL; for inhibition at 0.03 µM: HepG2, peptide 30nM, read-out: GDF11 Inhibition 30nM; for inhibition at 0.1 µM: HepG2, peptide 100nM, read-out: GDF11 Inhibition 100nM
T1 construct: purchased R&D systems 1958-GD-G8/CF
T1 sequence (O95390 299-407): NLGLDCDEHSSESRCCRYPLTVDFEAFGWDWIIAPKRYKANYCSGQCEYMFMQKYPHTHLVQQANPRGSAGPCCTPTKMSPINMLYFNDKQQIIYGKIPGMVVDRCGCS
How it was run: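 HepG2 cells carrying the transfected pGL3(CAGA)12-luc reporter, a pGL3 vector with luciferase placed downstream of 12 CAGA repeats, were stimulated with GDF-11 at a final 10 ng/mL together with test peptide. Blank wells received no GDF-11 and no peptide. Plates were incubated 20 to 24 hours at 37°C with 5% CO2. Luminescence from One-Glo substrate was read to calculate percent inhibition.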

Myostatin = target: T2, Myostatin (Homo sapiens, UniProt O14793); experiment: HepG2 reporter gene assay, Evaluation Procedure (2): 2-concentrations assay, myostatin inhibition; format: cell-based; settings: Myostatin 10 ng/mL, HepG2; for inhibition at 0.03 µM: peptide 30nM, read-out: Myostatin Inhibition 30nM; for inhibition at 0.1 µM: peptide 100nM, read-out: Myostatin Inhibition 100nM
T2 construct: active myostatin (also called mature myostatin) is a homodimer consisting of two C-terminal growth factor domains; purchased R&D systems 788-G8/CF
T2 sequence (O14793 267-375): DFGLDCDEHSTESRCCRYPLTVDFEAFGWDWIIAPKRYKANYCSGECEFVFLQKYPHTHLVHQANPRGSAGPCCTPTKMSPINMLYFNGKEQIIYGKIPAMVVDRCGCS
How it was run: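 HepG2 cells (HB-8065, ATCC) carrying the transfected pGL3(CAGA)12-luc reporter plasmid were treated with myostatin (788-G8/CF, R&D systems) at a final concentration of 10 ng/mL plus peptide and incubated at 37°C, 5% CO2 for 20 to 24 hours. Luminescence was read after adding PBS mixed 1:1 with One-Glo substrate, and inhibition rate was calculated.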

inhibition at 0.03 µM (GDF-11)	inhibition at 0.1 µM (GDF-11)	inhibition at 0.03 µM (Myostatin)	inhibition at 0.1 µM (Myostatin)	SMILES
0%	0%	69%	88%	CC[C@H](C)[C@@H]1NC(=O)[C@H](Cc2ccccc2)N(C)C(=O)[C@H](Cc2ccc(O)cc2)NC(=O)[C@H](Cc2c[nH]c3ncccc23)NC(=O)[C@H](C)NC(=O)CN(CCCC(=O)O)C(=O)CSC[C@H](C(=O)N[C@H](CO)C(=O)N[C@H](CO)C(=O)N[C@H](CO)C(=O)N[C@H](CCCCN)C(=O)O)NC(=O)[C@H](Cc2ccccc2)N(C)C(=O)[C@H](C)N(C)C(=O)[C@H](CC(C)C)NC(=O)[C@H](Cc2ccccc2)N(C)C(=O)[C@H](CCCNC(=N)N)NC(=O)[C@H](Cc2ccc(C(=O)O)cc2)NC(=O)[C@H](Cc2ccccc2)NC(=O)CN(C)C1=O [Myostatin_99_v37] ({CH2CO}-[Gly(N(CH2)3COOH)]A[Trp(7-aza)]Y[NMeF]I[Sar]F[Phe(4-COOH)]R[NMeF]L[NMeA][NMeF][dC][dS][dS][dS][dK]-OH; thioether N-15)
0%	11%	40%	80%	CC[C@H](C)[C@@H]1NC(=O)[C@H](Cc2ccccc2)N(C)C(=O)[C@H](Cc2ccc(O)cc2)NC(=O)[C@H](Cc2c[nH]c3ncccc23)NC(=O)[C@H](C)NC(=O)CN(CCCC(=O)O)C(=O)CSC[C@H](C(=O)N[C@H](CO)C(=O)N[C@H](CO)C(=O)N[C@H](CO)C(=O)N[C@H](CCCCN)C(=O)O)NC(=O)[C@H](Cc2ccccc2)N(C)C(=O)[C@H](C)N(C)C(=O)[C@H](CC(C)C)NC(=O)[C@H](Cc2ccccc2)N(C)C(=O)[C@H](CCCNC(=N)N)NC(=O)[C@H](Cc2ccc(C(=O)O)cc2)NC(=O)[C@H](Cc2ccncc2)NC(=O)CN(C)C1=O [Myostatin_99_v38] ({CH2CO}-[Gly(N(CH2)3COOH)]A[Trp(7-aza)]Y[NMeF]I[Sar][4Pal][Phe(4-COOH)]R[NMeF]L[NMeA][NMeF][dC][dS][dS][dS][dK]-OH; thioether N-15)
0%	11%	39%	79%	CC[C@H](C)[C@@H]1NC(=O)[C@H](Cc2ccccc2)N(C)C(=O)[C@H](Cc2ccc(O)cc2)NC(=O)[C@H](Cc2c[nH]c3ncccc23)NC(=O)[C@H](CCC(=O)O)NC(=O)[C@H](C)NC(=O)CSC[C@H](C(=O)N[C@H](CO)C(=O)N[C@H](CO)C(=O)N[C@H](CO)C(=O)N[C@H](CCCCN)C(=O)O)NC(=O)[C@H](Cc2ccccc2)N(C)C(=O)[C@H](C)N(C)C(=O)[C@H](CC(C)C)NC(=O)[C@H](Cc2ccccc2)N(C)C(=O)[C@H](CCCNC(=N)N)NC(=O)[C@H](Cc2ccc(C(=O)O)cc2)NC(=O)[C@H](Cc2ccccc2)NC(=O)CN(C)C1=O [Myostatin_99_v39] ({CH2CO}-AE[Trp(7-aza)]Y[NMeF]I[Sar]F[Phe(4-COOH)]R[NMeF]L[NMeA][NMeF][dC][dS][dS][dS][dK]-OH; thioether N-15)
0%	0%	39%	67%	CC[C@H](C)[C@@H]1NC(=O)[C@H](Cc2ccccc2)N(C)C(=O)[C@H](Cc2ccc(O)cc2)NC(=O)[C@H](Cc2c[nH]c3ncccc23)NC(=O)[C@H](CCC(=O)O)NC(=O)[C@H](C)NC(=O)CSC[C@H](C(=O)N[C@H](CO)C(=O)N[C@H](CO)C(=O)N[C@H](CO)C(=O)N[C@H](CCCCN)C(=O)O)NC(=O)[C@H](Cc2ccccc2)N(C)C(=O)[C@H](C)N(C)C(=O)[C@H](CC(C)C)NC(=O)[C@H](Cc2ccccc2)N(C)C(=O)[C@H](CCCNC(=N)N)NC(=O)[C@H](Cc2ccc(C(=O)O)cc2)NC(=O)[C@H](Cc2ccncc2)NC(=O)CN(C)C1=O [Myostatin_99_v40] ({CH2CO}-AE[Trp(7-aza)]Y[NMeF]I[Sar][4Pal][Phe(4-COOH)]R[NMeF]L[NMeA][NMeF][dC][dS][dS][dS][dK]-OH; thioether N-15)

— patent EP4786487A1, “PEPTIDE” (Peptidream Inc, priority 2023, dated 2025)
